According to patent publication US4535081A, “Antiallergic and antiulcer 1-oxo-1H-thiazolo[3,2-a]pyrimidine-2-carboxamides and intermediates therefor” (Pfizer Inc., priority 1983, dated 1985):
Entries after “also recorded” stand apart in the source; their conditions may differ.

How the values were obtained:
[1] = system: isolated guinea pig ileum (slow reacting substance of anaphylaxis); experiment: Isolated ileum spasm, slow reacting substance of anaphylaxis; settings: 10^-8 to 10^-4 M
isolated rat monocytes = experiment: Synthesis and release of SRC in isolated monocytes stimulated by an ionophore; format: cell-based
human lymphocytes = experiment: Chromosomal breakage in human lymphocytes in vitro; format: cell-based; settings: 1000, 100, 10 or 0 μg/ml
[2] = system: passive cutaneous anaphylaxis (PCA); experiment: Intravenous activity in PCA test; format: in vivo, rat
Description: (§1) In the PCA test, normal animals are injected intradermally (i.d.) with antibodies contained in serum obtained from actively sensitized animals. The animals are then challenged intravenously with antigen mixed with a dye such as Evans' Blue. The increased capillary permeability caused by the antigen-antibody reaction causes the dye to leak from the site of the antibody injection. The test animals are then asphyxiated and the intensity of the reaction determined by measuring the diameter and intensity of the blue coloration on the inner surface of the animals' skin.
The ability of agents to interfere with PCA reactions is measured in male Charles River Wistar rats, 170-210 g. Reaginic antiserum, rich in IgE antibodies, is prepared according to Petillo et al., Int. Arch. […] Hyperimmune antiserum rich in IgG antibodies to hen egg albumin is prepared according to Orange et al., J. Exptl. […] Forty-eight hours prior to antigen challenge, the reaginic antiserum is injected intradermally (i.d.) into the shaved skin of a normal rat's back; 5 hours before challenge the hyperimmune antisera is similarly injected. […] The difference is expressed as percent blockage due to the compound employed.

Stability = format: physicochemical; settings: solid state, with standard diluents / inert ingredients, or in solution
[3] = system: IgG (hyperimmune antiserum) PCA reaction; experiment: Oral activity in PCA test, IgG; format: in vivo; settings: Rattus norvegicus, 3 mg./kg., read-out: Oral Activity (% of Protection) in the PCA Test, IgG
Description: as §1, with “The antiallergy property of the compounds of this invention is evaluated by the passive cutaneous anaphylaxis (PCA) test (Ovary, J. Immun., 81, 355, 1958). In” for “In”
The ability of agents to interfere with PCA reactions is measured in male Charles River Wistar rats, 170-210 g. Reaginic antiserum, rich in IgE antibodies, is prepared according to Petillo et al., Int. Arch. Allergy, 44, 309 (1973). Hyperimmune antiserum rich in IgG antibodies to hen egg albumin is prepared according to Orange et al., J. Exptl. Med., 127, 767 (1968). Forty-eight hours prior to antigen challenge, the reaginic antiserum is injected intradermally (i.d.) into the shaved skin of a normal rat's back; 5 hours before challenge the hyperimmune antisera is similarly injected. At a third site 60 mcg. histamine dihydrochloride and 0.5 mcg. serotonin creatinine sulfate are injected i.d. just prior to antigen challenge as a check for antihistaminic, antiserotonin and unspecific types of blockage; the compounds of the instant invention or saline are then administered i.v. and immediately followed by the challenge of 5 mg. egg albumen and 2.5 mg. Evans' Blue dye in saline. In the case of oral administration Evans' Blue dye and egg albumin are given 5 minutes after administration of the drug. Thirty minutes later the animals are asphyxiated using chloroform and the skin of the back removed and reversed for observation. A score is assigned each injection site equal to the product of the diameter of the site in mm. and a grade of 0.1, 0.5, 1, 2, 3 or 4 proportional to intensity of dye coloration. The scores for a given injection site are summed for each group of five animals and compared to the saline treated controls. The difference is expressed as percent blockage due to the compound employed.
Compounds representative of those of the present invention are tested for antiallergy activity by the above-described procedure and the resulting activities are reported as the degree (%) of protection.

blood glucose levels = experiment: Blood glucose in fasted rats; format: in vivo, rat; settings: fasted 24 hours; oral 10, 30 or 100 mg/kg
[4] = Plasma levels after repeated daily dosing; format: in vivo; settings: after the eighth daily dose of III
Description: (§2) This is supported by the observations of plasma concentrations of 3 to 7 μg/ml one hour after oral administration of III, 50 to 300 mg/kg.

[5] = Oral absorption and plasma concentrations, dogs; format: in vivo, dog
Description: as §2

point mutations = experiment: Ames test in vitro; format: cell-based
[6] = system: cold-restraint stress gastric ulcer; experiment: Cold-restraint stressed rat ulcer assay; format: in vivo
Description: The effectiveness of the products of this invention as anticulcer agents is determined by the so-called cold-restraint stressed rat assay. In this test non-fasted female rats (Charles River C-D strain) weighing 70-140 gms. are administered the drug or carrier (control animals) intraperitoneally (in saline solution containing 1% carboxymethylcellulose and 0.1% Tween 80) or orally (in water) three hours before being lightly anesthetized with ether and taped in the supine position to individual sheets of plexiglass. After recovery from anesthesia, the restrained animals are positioned horizontally in a refrigerator maintained at 10°-12° C. and three hours later sacrificed by cervical dislocation. The abdomen of each rat is opened, the pylorus clamped, the stomach inflated with saline via an oral tube, the esophagus clamped and the stomach excised. The stomachs are placed in a 0.4% formaldehyde solution for approximately 30 seconds to harden the outer layers and facilitate examination. Each stomach is then cut open along the greater curvature and the glandular portion (hind stomach) examined for damage. The number of gastric erosions, their severity and the color of the stomachs is recorded. […]

In the case of `O=C(Nc1nnn[nH]1)c1cnc2sc3c(n2c1=O)CCCC3` [Compound III, N-(5-Tetrazolyl)-1-oxo-1H-cyclohexenothiazolo[3,2-a]pyrimidine-2-carboxamide], the “antagonism of spasm of isolated guinea pig ileum” value [1] is reported as “does not antagonize spasms”, the “synthesis and release of SRC” value (isolated rat monocytes) is reported as “is not inhibited” and the “drug-induced chromosomal breakage, human lymphocytes” value (human lymphocytes) is reported as “failed to reveal any significant drug-induced chromosomal breakage”. For the same compound, the “intravenous activity range in the PCA test” value [2] was 0.03 to 1.0 mg/kg, the “potency relative to Intal in the PCA test” value ([2]; vs Intal) was ~26 times and the stability (Stability) was “highly stable in a pure solid state, as well as in the presence of standard pharmaceutical diluents and in solution; also recorded: exceptionally good stability”. The inhibition in vivo at 3 mg/kg [3] was 45%, the blood glucose levels (blood glucose levels) was “did not exhibit any changes in blood glucose levels” and the “levels after the eighth daily dose relative to initial dose” value [4] was 2 to 4 times. For the same compound, the plasma concentration ([5]; one hour after oral 50 to 300 mg/kg, 60 min) was 9 to 26 µg/mL, the oral absorption ([5]; suspensions or capsules) was “absorbed readily after oral administration” and the “point mutations in Ames test” value (point mutations) was “did not induce point mutations”. For the same compound, the “oral dose range of dose-related protection, cold-restraint stress” value ([6]; oral) was 3 to 100 µg/kg and the “potency in cold-restraint stress gastric ulcer procedure” value ([6]; rat, in vivo) was “extremely potent; also recorded: highly potent”.
